Laboratory results from patent US20080014289A1, “Vehicle and method for treating and preventing acne vulgaris and exfoliating the skin hypohalous acids” (priority 2006, published 2008).
Like-named read-outs stand apart in the source and are kept apart here.

Columns and labels:
cells = details: equimolar basis, compared with HOCl; cited from earlier work
acne vulgaris = test: Preclinical trial of washing solution, anti-acne activity; format: in vivo
Excerpt: The concentration of HOCl in the washing solution may be higher than this value depending on where the washing solution is to be applied, e.g. when treating a patient's back for trunk acne, the concentration of HOCl in the washing solution may be as high as 60 ppm for maximum effect in the short term because the thickness of skin on this section of a body is around 3 mm (as compared to a skin thickness of 0.1 mm at the chin section of the face).
Treatment is divided into two stages, treatment period and maintenance period. User should conduct the treatment daily during treatment period until no acne break out; then can switch to maintenance period.
• 1. Wash the face regularly with soap completely removing oil and grime from the surface of the skin. Concentrate on areas of the skin prone to suffering from acne, such as forehead, chin, jawline, around the lips and nose. • 2. Prepare the washing solution as indicated in Examples 1A-1I. • 3. Submerge your face fully into the washing solution, in order to extend time for skin contacting with the solution, moving the head as much as practical while submerged. […]

[1] = cited from earlier work
bacteria = details: hot tubs, spas and swimming pools; cited from earlier work
[2] = cited from earlier work; remark: listed apart in the source

For `OBr` [HOBr, hypobromous acid], the “efficiency as a lytic agent, factor relative to HOCl” value (cells) is listed as 10, the “anti-acne activity compared with hypochlorous acid” value (acne vulgaris) is listed as “slightly less effective than hypochlorous acid” and the “% of bromine as HOBr” value ([1]; water pH 6.0) is listed as 100%. For the same molecule, the “% of bromine as HOBr” value ([1]; water pH 6.5) was 99.4%, the “% of bromine as HOBr” value ([1]; water pH 7.0) was 98% and the “% of bromine as HOBr” value ([1]; water pH 7.5) was 94.0%. The “% of bromine as HOBr” value ([1]; water pH 8.0) was 83.0% and the “% of bromine as HOBr” value ([1]; water pH 8.5) was 57.0%.

In the case of `OBr` [OBr^−, hypobromite], the “% bromine as OBr−” value ([1]; water pH 6.0) is listed as 0.0%, the “% bromine as OBr−” value ([1]; water pH 6.5) is listed as 0.6% and the “% bromine as OBr−” value ([1]; water pH 7.0) is listed as 2%. The “% bromine as OBr−” value ([1]; water pH 7.5) was 6.0%, the “% bromine as OBr−” value ([1]; water pH 8.0) was 17.0% and the “% bromine as OBr−” value ([1]; water pH 8.5) was 43.0%.

In the case of `OCl` [HOCl, hypochlorous acid], the “time needed to completely destroy a given concentration of bacteria” value (bacteria) is listed as 30 s, the “FAC existing as active HOCl” value ([2]; pH above 7.5) is listed as < 50% and the “% of Chlorine as HOCl” value ([2]; water pH 6.5) is listed as 90%. The “% of Chlorine as HOCl” value ([2]; water pH 7.0) was 73%, the “% of Chlorine as HOCl” value ([2]; water pH 7.2) was 66% and the “share of FAC in the active HOCl form” value ([2]; water pH 7.5) was ~50%. The “% of Chlorine as HOCl” value ([2]; water pH 7.6) was 45%, the “% of Chlorine as HOCl” value ([2]; water pH 8.0) was 21% and the “% of Chlorine as HOCl” value ([2]; water pH 8.5) was 10%.

In the case of Hypochlorite ion [OCl^−], the “% chlorine as OCl−” value ([2]; water pH 6.5) is given as 10%, the “% chlorine as OCl−” value ([2]; water pH 7.0) is given as 27% and the “% chlorine as OCl−” value ([2]; water pH 7.2) is given as 34%. The “% chlorine as OCl−” value ([2]; water pH 7.6) was 55%, the “% chlorine as OCl−” value ([2]; water pH 8.0) was 79% and the “% chlorine as OCl−” value ([2]; water pH 8.5) was 90%.
